Article PMC7179205, “An Improved Synthesis of Key Intermediate to the Formation of Selected Indolin-2-Ones Derivatives Incorporating Ultrasound and Deep Eutectic Solvent (DES) Blend of Techniques, for Some Biological Activities and Molecular Docking Studies” (Molecules, 2020)
“And” between values parts separate entries of the source, which are not always exact repeats. Identical values can stand only once. “Also recorded” adds a separate entry of the source. Like-named read-outs stand apart in the source and are kept apart here.

Columns and labels:
Rat Paw Edema = assay: carrageenan-induced hind paw edema method (anti-inflammatory activity); assay type: in vivo, Wistar albino rats; settings: for inhibition in vivo at 10 mg/kg: Rattus norvegicus, po; for inhibition in vivo at 10 mg/kg / % Age Inhibition of Rat Paw Edema, 4 H / anti-inflammatory activity (in words): oral dose 10 mg/kg; for inhibition in vivo at 10 mg/kg / % Age Inhibition of Rat Paw Edema, 4 H: mean ± SEM; for Potency (anti-inflammatory): relative to indomethacin = 1.00; for anti-inflammatory activity (in words): compared with standard indomethacin
Protocol: The anti-inflammatory activity of the synthesized compounds (4a–n) was evaluated by the carrageenan-induced paw edema method. An oral dose of 10 mg/kg was used for compounds and compared with the standard. Anti-inflammatory activity was accessed through percentage inhibition after 2 and 4 h (Table 1).
Compounds produced were assessed for their anti-inflammatory activity using the carrageenan-induced hind paw edema method. The anti-inflammatory activity was carried out using Wistar albino rats of either sex (150–220 g) using a Digital Plethysmometer (Model No. 7140, UGO BASILE). The edema was induced by using 1% carrageenan solution. Indomethacin was used as a standard drug. The anti-inflammatory activity of the standard drug and tested compounds was determined at a dose of 10 mg/kg body weight. The animals were divided into groups containing six animals each and the initial paw volume of each rat was noted by the NaCl displacement method. One group was kept as control, one as standard, and the rest of the groups of compounds were to be tested. To the control group, 1% CMC solution was administered p.o. To the standard group, the standard drug was administered orally. To the test group, tested compounds were administered orally. After 60 min of the 1% CMC solution/standard drug/test compound administration, 0.1 ml of 1% (w/v) carrageenan was injected in the plantar region of the hind limb (right) of all the rats in each group including the control group. The paw volume was again measured after the time interval of 2 and 4 h. Using the following formula, inflammation was calculated as percentage inhibition for the test and reference compounds
(Final foot volume of control—final foot volume of std./test) × 100 / final foot volume of control)

[1] = system: acetic acid-induced writhing; assay: acetic acid-induced writhing method (analgesic activity); assay type: in vivo, Swiss albino mice; settings: for inhibition in vivo at 10 mg/kg: Mus musculus, read-out: % Analgesic Activity; for Potency (analgesic): relative to indomethacin = 1.00; for Mean with ± SEM: writhes counted for 15 min; for analgesic activity (in words): compared with standard indomethacin
Protocol: All the tested compounds and standard drugs are evaluated at 10 mg/kg oral dose.
The analgesic activity of the tested compounds was carried out by acetic acid-induced writhing method as given in the literature using Swiss albino mice of either sex (25–35 g). The writh were induced in the albino mice using an intraperitoneal injection of 1% acetic acid solution. The standard drug indomethacin and test compounds were evaluated at a concentration of 10 mg/kg of the body weight. The animals were divided into groups and each group consisted of six animals. One group was kept as control, one as standard, and other as test groups. To the control group, 0.1% CMC solution was administered p.o; to the standard group, the standard drug was administered orally, and to the test group, test compounds were administered orally. After 60 min of the 0.1% CMC solution/standard drug/tested compound administration, 0.1 ml of 1% (v/v) acetic acid solution in distilled water was injected intraperitoneally in all the mice in each group including the control group. The writhing (a contraction of the abdomen, turning of trunk, and extension of hind limbs) was counted after 5 min of acetic acid administration and were counted for a period of 15 min. The percentage of analgesic activity was calculated using the following formula.
(Mean wriths of control—mean wriths of std./test) / mean wriths of control) × 100

gastric mucosal damage = assay: acute ulcerogenic activity (severity index of gastric mucosal damage); assay type: in vivo, Wistar rats; settings: for Severity Index: test compounds 30 mg/kg oral, indomethacin 10 mg/kg or 20 mg/kg, 17 h after dose, mean ± SEM
Protocol: Four compounds, namely, 4c (Ar = 4-chlorophenyl), 4f (Ar = 2-chlorophenyl), 4i (Ar = 4-fluoro-3-chlorophenyl), and 4n (Ar = 2-methylphenyl) were selected for their ulcerogenic activity. This selection was based on their anti-inflammatory and analgesic activity. Compounds were evaluated at an oral dose of 30 mg/kg relative to 10 mg/kg indomethacin.
Acute ulcerogenic activity evaluation of the synthesized compounds was carried out according to the method described using Wistar rats of either sex (180–220 g). The animals were distributed into control, group, and test group. Each group consisted of six rats. All the rats fasted for 24 h with free access to water. To the control group, 1% CMC solution was administered p.o; to the standard group, indomethacin at a concentration of 20 mg/kg was administered orally; and to the test groups, tested compounds were administered orally at a concentration of 30 mg/kg. After the dose administration animals were kept for 17 h. After this, the animals were sacrificed for the appraisal of ulcerogenic assessment. The stomach was taken out from the animal body and washed with flushing water, then with a cotton swab wetted with saline (0.9%) and pinned on wax-coated try. The glandular portion of the stomach was cleaned again with saline to closely identify the presence of a type of ulcers or hemorrhage mark using a magnifying glass. The mucosal injury of the stomach was evaluated as per the following system: 0.5 = redness; 1 = spot ulcer; 1.5 = hemorrhage streak; 2 = ulcers < 3; 3 = ulcers > 3 < 5. The value obtained as a result of the mean score of the individual treated group—mean score of control is referred to as the severity index of the gastric mucosal damage.

gastric tissue = assay: lipid peroxidation (MDA content of gastric tissue); assay type: in vivo; settings: for MDA content (lipid peroxidation): as repeated in Table 4, the values are: MDA content (lipid peroxidation); for Nanomoles of MDA Content ± SEM/ 100 mg Tissue: gastric tissue
Protocol: Gastrointestinal (GI) ulceration, bleeding, and renal problems are common complications of NSAID’S consumption, which is directly related to lipid peroxidation. […] It was measured as the nmol of MDA/100 mg of gastric tissue. We have found the Lipid peroxidation value was maximum 6.71 ± 0.18 for indomethacin, whereas 3.89 ± 0.17, 4.08 ± 0.22, 4.26 ± 0.12, and 4.81 ± 0.13 for compounds 4i, 4c, 4f, and 4n, respectively.
The method adopted for lipid peroxidation is the same as Ohkawaet al. and the recent work of our researchers.

[2] = 2 h, 2 h, read-out: % Age Inhibition of Rat Paw Edema, 2 H
[3] = 4 h, 4 h, read-out: % Age Inhibition of Rat Paw Edema, 4 H

Row | SMILES | inhibition in vivo at 10 mg/kg (Rat Paw Edema; [2]) [%] | inhibition in vivo at 10 mg/kg (Rat Paw Edema; [3]) [%] | Potency (anti-inflammatory) (Rat Paw Edema; 10 mg/kg) | inhibition in vivo at 10 mg/kg ([1]; oral dose 10 mg/kg, mean ± SEM) [%] | Potency (analgesic) ([1]; 10 mg/kg) | Mean with ± SEM ([1]; oral dose 10 mg/kg) | Severity Index (gastric mucosal damage) | MDA content (lipid peroxidation) (gastric tissue) [nmol MDA/100 mg tissue] | Nanomoles of MDA Content ± SEM/ 100 mg Tissue (gastric tissue) | melting point [°C] | % Age Inhibition of Rat Paw Edema, 4 H (Rat Paw Edema; 4 h, 10 mg/kg) [%] | anti-inflammatory activity (in words) (Rat Paw Edema; 10 mg/kg) | analgesic activity (in words) ([1]; oral dose 10 mg/kg) | anti-inflammatory activity (in words) (Rat Paw Edema) | analgesic activity (in words) ([1]; oral dose 10 mg/kg, 10 mg/kg) | severity index as share of the severity shown by the standard (gastric mucosal damage; relative to indomethacin) [%] | % Analgesic Activity ([1]; oral dose 10 mg/kg, mean ± SEM, 10 mg/kg) [%] | Nanomoles of MDA Content ± SEM/ 100 mg Tissue (gastric tissue; listed as indomethacin)
1 | O=C1C(=NNc2nc(-c3cc4ccccc4oc3=O)cs2)c2ccccc2N1CNc1ccc(Cl)cc1 [Compound 4c, 1-[(4-Chloro-phenylamino)-methyl]-3-{[4-(2-oxo-2H-chromen-3-yl)-thiazol-2-yl]-hydrazono}-1,3-dihydro-indol-2-one] | 59.29 ± 0.143 | 30.17 ± 0.294 | 0.36 | 59.9 ± 0.846 | 0.81 | 13.00 ± 0.2582 | 0.666 ± 0.105 | 4.08 ± 0.22 | 4.08 ± 0.22 nmol of MDA/100 mg of gastric tissue and 4.26 ± 0.12 nmol of MDA/100 mg of gastric tissue | 233 to 235 | – | – | – | – | – | – | – | –
2 | O=C1C(=NNc2nc(-c3cc4ccccc4oc3=O)cs2)c2ccccc2N1CNc1ccccc1Cl [Compound 4f, 1-[(2-chloro-phenylamino)-methyl]-3-{[4-(2-oxo-2H-chromen-3-yl)-thiazol-2-yl]-hydrazono}-1,3-dihydro-indol-2-one] | 48.38 ± 0.219 | 72.4 | 0.88 | 69.36 ± 0.585 | 0.94 | 9.93 ± 0.386 | 0.666 ± 0.105 | 4.26 ± 0.12 | 4.26 ± 0.12 nmol of MDA/100 mg of gastric tissue and 4.08 ± 0.22 nmol of MDA/100 mg of gastric tissue | 239 to 241 | 72.42 ± 0.183 | good anti-inflammatory activity; also recorded: significant anti-inflammatory activity | very good analgesic activity | – | – | – | – | –
3 | O=C1C(=NNc2nc(-c3cc4ccccc4oc3=O)cs2)c2ccccc2N1CNc1ccc(F)c(Cl)c1 [Compound 4i, 1-[(3-Chloro-4-fluoro-phenylamino)-methyl]-3-{[4-(2-oxo-2H-chromen-3-yl)-thiazol-2-yl]-hydrazono}-1,3-dihydro-indol-2-one] | 31.27 ± 0.188 | 63.95 ± 0.218 | 0.77 | 66.3 ± 1.01 | 0.90 | 10.93 ± 0.3128 | 0.500 ± 0.129 | 3.89 ± 0.17 | 3.89 ± 0.17 nmol of MDA/100 mg of gastric tissue | 246 to 248 | – | – | – | moderate anti-inflammatory activity | very good analgesic activity; also recorded: good analgesic activity | – | – | –
4 | Cc1ccccc1NCN1C(=O)C(=NNc2nc(-c3cc4ccccc4oc3=O)cs2)c2ccccc21 [Compound 4n, 3-{[4-(2-Oxo-2H-chromen-3-yl)-thiazol-2-yl]-hydrazono}-1-(o-tolylamino-methyl)-1,3-dihydro-indol-2-one] | 42.57 ± 0.213 | 69.58 ± 0.133 | 0.84 | 69.14 ± 0.689 | 0.93 | 10.00 ± 0.3651 | – | 4.81 ± 0.13 | 4.81 ± 0.13 nmol of MDA/100 mg of gastric tissue | 237 to 239 | – | – | very good analgesic activity | – | – | 20 | – | –
5 | COc1ccc2c(c1)c(CC(=O)O)c(C)n2C(=O)c1ccc(Cl)cc1 [Indomethacin, reference compound] | 66.34 ± 0.051 | 82 | 1.00 | 73.6 | 1.00 | 8.55 ± 0.394 | 4.500 ± 0.316 | – | 6.71 ± 0.18 nmol of MDA/100 mg of gastric tissue | – | 82.05 ± 0.08 | – | – | – | – | – | 73.61 ± 0.315 | 6.71 ± 0.18 nmol of MDA/100 mg of gastric tissue
